Among the data in PubChem BioAssay (NCI) are TGI and GI50 values, retold here.

SMILES strings stand for the structures.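 Tested at 5 concentrations; 48 h exposure; 96-well plates; endpoints linearly interpolated, else capped at highest concentration. GI50: concentration for 50% inhibition of growth. TGI marks complete inhibition of growth.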 A value given as a limit tells only on which side of the number the result lay.

Holding throughout (assay): DTP human tumour cell line panel, 48 h
Assay [1] has as its system SK-MEL-2 melanoma.
The subject of assay [2] is EKVX NSCLC.
Assay [3] relates to NCI-H460 lung.
Assay [4] has as its system HL-60(TB) leukemia.
Assay [5] has as its system SF-539 CNS.
Assay [6] has as its system K-562 leukemia.
Assay [7] deals with HOP-18 NSCLC.
Assay [8] relates to HCT-116 colon.
The test system of assay [9] is DLD-1 colon.
Assay [10] concerns NCI/ADR-RES ovarian.
Assay [11] concerns DU-145 prostate.

Broadly, the TGI is the concentration giving total growth inhibition. Low readings indicate greater sensitivity of the cells, high ones lower sensitivity of the cells. As a reminder, the GI50 is the concentration giving 50% growth inhibition.

Turning to `Cc1ccc(S(=O)(=O)Nc2cccc3c(=O)[nH]cnc23)cc1`, the TGI in assay [1], in assay [2], in assay [3], in assay [4], in assay [5] and in assay [6] was greater than 100 µM each time. For the same molecule, the TGI in assay [7] and in assay [8] was greater than 100 µM throughout.

Consider `Cc1n(CC(C)C)c2c([n+]1C)C(=O)c1ccccc1C2=O`, for which the TGI in assay [9] is 0.975 µM; in assay [1], 0.524 µM; in [2], 0.649 µM; in [3], 1.26 µM; in assay [10], greater than 100 µM; in assay [4], 0.437 µM. The TGI in assay [5] is 0.532 µM; in assay [6] it was greater than 100 µM; in [7], 3.63 µM; in assay [8], 0.23 µM; in assay [11], 0.41 µM.

For the molecule `Cc1ccc2c(ccc(/C=C/c3ccc(O)c4ncccc34)[n+]2C)c1`, the concentration for total growth inhibition (TGI) is 38.3 µM in assay [9]; 36.3 µM in assay [1]; 76.6 µM in [2]; 30.3 µM in assay [3]; greater than 100 µM in assay [10]; greater than 100 µM in assay [4]. Also, the TGI in assay [5] is 23.1 µM; in assay [6], 83.4 µM; in assay [7], 26.4 µM; in assay [8], 24.3 µM; in [11] it was greater than 57.3 µM.

In the case of `COC1OC(CS(=O)(=O)O)C(O)C(O)C1O` (stereo unspecified), the TGI in assay [1], in assay [3], in assay [10], in assay [4], in assay [6] and in assay [8] was greater than 100 µM in each case. In assay [11], this molecule had a TGI greater than 100 µM.

Consider `CC1(C)[C@@H]2CC[C@]1(C)[C@H](OC(=O)CSC#N)C2`, for which the TGI in [1] was greater than 100 µM; in assay [2], greater than 100 µM; in assay [3] it was greater than 100 µM; in assay [10] it was greater than 100 µM; in assay [5], 67.9 µM; in assay [8] it was greater than 100 µM. This molecule had a TGI in assay [11] greater than 100 µM.

For the molecule `O=S(=O)(O)c1ccc(N=Nc2ccc3c(S(=O)(=O)O)cccc3c2O)c2ccccc12`, the TGI in assay [1], in assay [2], in assay [10], in assay [8] and in [11] was greater than 100 µM each time.

For `N#C[S-].[La+3].c1cnc2c(c1)ccc1cccnc12.c1cnc2c(c1)ccc1cccnc12.c1cnc2c(c1)ccc1cccnc12`, the TGI in assay [2] was 15.5 µM; in assay [4] it was 2.47 µM; in assay [5] it was 14.1 µM; in assay [6], greater than 100 µM; in [7], 9.46 µM; in assay [8], 10.2 µM. Moreover, the GI50 in assay [7] is 0.952 µM.

With `O=C1C=C(C2OC(CO)C(O)C2O)C(=O)N1` (stereo unspecified), the total growth inhibition concentration (TGI) in assay [9], in assay [1], in [2], in [3], in assay [10] and in assay [4] was greater than 100 µM in each case. Besides, the TGI in [5], in [6], in assay [7] and in [8] was greater than 100 µM throughout.

Take `C=C1C(=O)OC2/C=C(\C(=O)O)CC/C=C(\C)CC(OC(=O)/C=C(\C)CC)C12` (stereo unspecified): the TGI in [9] is 43.6 µM; in assay [1], 28.7 µM; in assay [2] it was 59.3 µM; in assay [3], 30.7 µM; in assay [4] it was greater than 100 µM; in [5] it was 29.9 µM. Moreover, the TGI in assay [6] was greater than 100 µM; in assay [7], 39.9 µM; in assay [8], 25.6 µM.

In the case of `O=C(c1ccccc1)c1ccc2n[se]nc2c1`, the TGI was greater than 100 µM in assay [9]; greater than 100 µM in assay [1]; greater than 100 µM in [2]; 25.9 µM in assay [4]; 43 µM in assay [5]; greater than 100 µM in assay [6].

Consider `CCCC(C)c1ccc(OCCCCCCN2CCNCC2)cc1` (stereo unspecified), for which the GI50 in assay [2] was 2.34 µM; in assay [3], 1.65 µM; in assay [10] it was 2.22 µM; in assay [4], 1.75 µM; in assay [5], 1.71 µM; in assay [6], 1.51 µM. Moreover, the GI50 in assay [11] was 2.25 µM. In addition, the TGI is 6.63 µM in assay [2]; 3.39 µM in assay [3]; 5.37 µM in [10]; 3.54 µM in assay [4]; 3.46 µM in assay [5]; 3.97 µM in [6]. Also, the total growth inhibition concentration (TGI) in assay [11] is 5.43 µM.

Regarding `OC(CC1CCCCN1)c1ccc2c(c1)oc1ccccc12` (stereo unspecified), the TGI in assay [1], in assay [2], in assay [3], in assay [10], in assay [4] and in assay [5] was greater than 100 µM each time. The total growth inhibition concentration (TGI) in assay [6], in assay [8] and in [11] was greater than 100 µM in each case.

Take `CN(C)/C=C/C(=CC=[N+](C)C)/C=C/N(C)C`: the TGI in assay [9], in [1], in [3], in [4], in [5] and in assay [6] was greater than 100 µM in each case. Also, the TGI in assay [8] was greater than 100 µM.
